26 compounds from patent US20220363665A1, “QUINOLINE COMPOUNDS FOR THE TREATMENT OF AUTOIMMUNE DISEASE” (Hoffmann-La Roche Inc., priority 2019, published 2022) can be followed below.

The target in this experiment is T1, human TLR8 (Homo sapiens, UniProt Q9NR97).
T1 construct: host or cells: HEK293 (HEK-Blue hTLR8)
T1 sequence (Q9NR97 27-1041): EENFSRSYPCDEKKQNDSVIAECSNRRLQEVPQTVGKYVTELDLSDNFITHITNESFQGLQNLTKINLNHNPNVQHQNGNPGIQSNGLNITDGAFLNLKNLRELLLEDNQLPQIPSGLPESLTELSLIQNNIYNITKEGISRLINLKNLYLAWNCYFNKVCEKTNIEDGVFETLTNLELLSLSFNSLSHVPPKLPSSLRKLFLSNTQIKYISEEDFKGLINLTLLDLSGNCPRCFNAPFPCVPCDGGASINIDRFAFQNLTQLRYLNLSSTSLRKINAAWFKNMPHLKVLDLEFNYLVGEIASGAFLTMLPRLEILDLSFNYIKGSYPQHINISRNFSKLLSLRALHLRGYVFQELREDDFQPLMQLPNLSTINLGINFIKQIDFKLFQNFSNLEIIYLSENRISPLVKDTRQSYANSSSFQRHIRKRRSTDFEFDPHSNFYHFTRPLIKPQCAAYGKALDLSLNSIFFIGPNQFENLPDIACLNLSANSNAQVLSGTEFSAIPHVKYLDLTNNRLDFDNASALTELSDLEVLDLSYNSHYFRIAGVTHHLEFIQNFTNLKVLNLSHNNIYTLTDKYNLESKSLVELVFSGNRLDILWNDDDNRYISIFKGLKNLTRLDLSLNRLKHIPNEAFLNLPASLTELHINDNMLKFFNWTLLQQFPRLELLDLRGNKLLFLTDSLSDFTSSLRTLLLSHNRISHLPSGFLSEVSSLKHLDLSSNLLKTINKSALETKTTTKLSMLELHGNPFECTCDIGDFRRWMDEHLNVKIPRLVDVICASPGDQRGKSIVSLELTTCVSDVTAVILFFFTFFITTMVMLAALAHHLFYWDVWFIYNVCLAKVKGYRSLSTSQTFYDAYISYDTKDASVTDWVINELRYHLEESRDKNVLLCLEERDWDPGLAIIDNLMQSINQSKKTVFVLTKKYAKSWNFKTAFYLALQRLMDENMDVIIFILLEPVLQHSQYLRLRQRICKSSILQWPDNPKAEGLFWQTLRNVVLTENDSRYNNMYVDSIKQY
As to the kind of experiment: HEK293-Blue-hTLR-8 cells assay (SEAP reporter, R848 stimulation). It is filed as cell-based. To be noted: HEK293-Blue-hTLR8 cells, R848, 20 hrs. Here is the method:
The following tests were carried out in order to determine the activity of the compounds of formula (I) in HEK293-Blue-hTLR-7/8/9 cells assay.
HEK293-Blue-hTLR-8 Cells Assay:
A stable HEK293-Blue-hTLR-8 cell line was purchased from InvivoGen (Cat. #: hkb-htlr8, San Diego, Calif., USA). These cells were originally designed for studying the stimulation of human TLR8 by monitoring the activation of NF-κB. A SEAP (secreted embryonic alkaline phosphatase) reporter gene was placed under the control of the IFN-β minimal promoter fused to five NF-κB and AP-1-binding sites. The SEAP was induced by activating NF-κB and AP-1 via stimulating HEK-Blue hTLR8 cells with TLR8 ligands. Therefore the reporter expression was declined by TLR8 antagonist under the stimulation of a ligand, such as R848, for incubation of 20 hrs. The cell culture supernatant SEAP reporter activity was determined using QUANTI-Blue™ kit (Cat #. rep-qbl, Invivogen, San Diego, Calif., USA) at a wavelength of 640 nm, a detection medium that turns purple or blue in the presence of alkaline phosphatase.
HEK293-Blue-hTLR8 cells were incubated at a density of 250,000˜450,000 cells/mL in a volume of 170 μL in a 96-well plate in Dulbecco's Modified Eagle's medium (DMEM) containing 4.5 g/L glucose, 50 U/mL penicillin, […], […], 2 mM L-glutamine, 10% (v/v) heat-inactivated fetal bovine serum with addition of 20 μL test compound in a serial dilution in the presence of final DMSO at 1% and 10 μL of 60 μM R848 in above DMEM, perform incubation under 37° C. in a CO2 incubator for 20 hrs. Then 20 μL of the supernatant from each well was incubated with 180 μL Quanti-blue substrate solution at 37° C. for 2 hrs and the absorbance was read at 620˜655 nm using a spectrophotometer. The signalling pathway that TLR8 activation leads to downstream NF-KB activation has been widely accepted, and therefore similar reporter assay was modified for evaluating TLR8 antagonist.
The term IC50 denotes the concentration that inhibits the measured activity by half. For the compound `C[C@@H]1CN(c2ccc(C(F)(F)F)c3ncccc23)C[C@H](C(=O)N2CC(N)C2)O1` [Example 7, (3-aminoazetidin-1-yl)-[(2R,6R)-6-methyl-4-[8-(trifluoromethyl)-5-quinolyl]morpholin-2-yl]methanone], it took 35 nM to reach half-maximal inhibition (IC50).

The compound `C[C@@H]1CN(c2ccc(C(F)(F)F)c3ncccc23)C[C@H](C(=O)NCCN2CCOCC2)O1` [Example 13, (2R,6R)-6-methyl-N-(2-morpholinoethyl)-4-[8-(trifluoromethyl)-5-quinolyl]morpholine-2-carboxamide] came in with an IC50 of 52 nM.

For the compound `C[C@@H]1CN(c2ccc(C(F)(F)F)c3ncccc23)C[C@H](C(=O)NC2CC3COCC(C2)N3)O1` (stereo partly drawn) [Example 33, (2R,6R)-6-methyl-N-(3-oxa-9-azabicyclo[3.3.1]nonan-7-yl)-4-[8-(trifluoromethyl)-5-quinolyl]morpholine-2-carboxamide], the IC50 is under 3 nM.

For `C[C@@H]1CN(c2ccc(C(F)(F)F)c3ncccc23)C[C@H](C(=O)NC2CCCNCC2)O1` (stereo partly drawn) [Example 8, (2R,6R)-N-(azepan-4-yl)-6-methyl-4-[8-(trifluoromethyl)-5-quinolyl]morpholine-2-carboxamide], the IC50 is under 3 nM.

On to `C[C@@H]1CN(c2ccc(I)c3ncccc23)C[C@H](C(=O)NC2CCN(C)CC2)O1` [Example 38, (2R,6R)-4-(8-iodo-5-quinolyl)-6-methyl-N-(1-methyl-4-piperidyl)morpholine-2-carboxamide], for which the IC50 was under 3 nM.

Turning to `C[C@@H]1CN(c2ccc(C(F)(F)F)c3ncccc23)C[C@H](C(=O)N2CCC3(CCNC3)C2)O1` (some centres unmarked) [Example 36], it took 25 nM to reach half-maximal inhibition (IC50).

For the compound `C[C@@H]1CN(c2ccc(I)c3ncccc23)C[C@H](C(=O)NC2CNCC2F)O1` (stereo partly drawn) [Example 40, cis-(2R,6R)-N-[4-fluoropyrrolidin-3-yl]-4-(8-iodo-5-quinolyl)-6-methyl-morpholine-2-carboxamide], the IC50 is under 3 nM.

For `C[C@@H]1CN(c2ccc(C(F)(F)F)c3ncccc23)C[C@H](C(=O)NC2CC3CCC(C2)N3)O1` (single isomer, unassigned) [Example 47B], the IC50 is under 3 nM.

`C[C@@H]1CN(c2ccc([N+](=O)[O-])c3ncccc23)C[C@H](C(=O)NC2CCN(C)CC2)O1` [Example 20, (2R,6R)-6-methyl-N-(1-methyl-4-piperidyl)-4-(8-nitro-5-quinolyl)morpholine-2-carboxamide] gave an IC50 of under 3 nM.

`C#Cc1ccc(N2C[C@@H](C)O[C@@H](C(=O)NC3CCN(C)CC3)C2)c2cccnc12` [Example 43, (2R,6R)-4-(8-ethynyl-5-quinolyl)-6-methyl-N-(1-methyl-4-piperidyl)morpholine-2-carboxamide] yielded an IC50 of under 3 nM.

For `C[C@@H]1CN(c2ccc(Cl)c3ncccc23)C[C@H](C(=O)NC2CCN(C)CC2)O1` [Example 24, (2R,6R)-4-(8-chloro-5-quinolyI)-6-methyl-N-(1-methyl-4-piperidyl)morpholine-2-carboxamide], the IC50 is under 3 nM.

In turn, `C[C@@H]1CN(c2ccc(Cl)c3ncccc23)C[C@H](C(=O)N[C@H]2CNC[C@H]2F)O1` [Example 22, (2R,6R)-4-(8-chloro-5-quinolyl)-N-[(3S,4R)-4-fluoropyrrolidin-3-yl]-6-methyl-morpholine-2-carboxamide] yielded an IC50 of 19 nM.

For `C[C@@H]1CN(c2ccc(C(F)(F)F)c3ncccc23)C[C@H](C(=O)NCC2CN(C)CCO2)O1` (stereo partly drawn) [Example 3, (2R,6R)-6-methyl-N-[(4-methylmorpholin-2-yl)methyl]-4-[8-(trifluoromethyl)-5-quinolyl]morpholine-2-carboxamide], the IC50 is under 3 nM.

For the compound `C[C@@H]1CN(c2ccc(C(F)(F)F)c3ncccc23)C[C@H](C(=O)N[C@@H]2CNC[C@@H]2F)O1` (single isomer, unassigned) [Example 2A], the IC50 was under 3 nM.

In the case of `C[C@H]1C[C@@H](N)CN(c2ccc(C(F)(F)F)c3ncccc23)C1` [Example 1, (3R,5S)-5-methyl-1-[8-(trifluoromethyl)-5-quinolyl]piperidin-3-amine], the IC50 is under 3 nM.

Consider `CC(NC(=O)[C@H]1CN(c2ccc(C(F)(F)F)c3ncccc23)C[C@@H](C)O1)C1CN(C)CCO1` (single isomer, unassigned) [Example 35B], for which the IC50 was under 3 nM.

Turning to `C[C@@H]1CN(c2ccc(C(F)(F)F)c3ncccc23)C[C@H](C(=O)N2CCC3(CCNCC3)CC2)O1` [Example 32, 3,9-diazaspiro[5.5]undecan-3-yl-[(2R,6R)-6-methyl-4-[8-(trifluoromethyl)-5-quinolyl]morpholin-2-yl]methanone], the IC50 came out at 20 nM.

On to `C[C@@H]1CN(c2ccc(I)c3ncccc23)C[C@H](C(=O)NCC2CN(C)CCO2)O1` (stereo partly drawn) [Example 39, (2R,6R)-4-(8-iodo-5-quinolyl)-6-methyl-N-[(4-methylmorpholin-2-yl)methyl]morpholine-2-carboxamide], for which the IC50 was under 3 nM.

`C[C@@H]1CN(c2ccc(C(F)(F)F)c3ncccc23)C[C@H](C(=O)NCC2COCCN2C)O1` (stereo partly drawn) [Example 11, (2R,6R)-6-methyl-N-[(4-methylmorpholin-3-yl)methyl]-4-[8-(trifluoromethyl)-5-quinolyl]morpholine-2-carboxamide] came in with an IC50 of 62 nM.

On to `C[C@@H]1CN(c2ccc(C(F)(F)F)c3ncccc23)C[C@H](C(=O)NC2C3CCCC2CNC3)O1` (stereo partly drawn) [Example 45, (2R,6R)-N-(3-azabicyclo[3.3.1]nonan-9-yl)-6-methyl-4-[8-(trifluoromethyl)-5-quinolyl]morpholine-2-carboxamide], for which the IC50 was under 3 nM.

As to `C[C@@H]1CN(c2ccc(C(F)(F)F)c3ncccc23)C[C@H](C(=O)NC2C3CNCC2COC3)O1` (single isomer, unassigned) [Example 46A], the IC50 was found to be 16 nM.

As to `C[C@@H]1CN(c2ccc(C(F)(F)F)c3ncccc23)C[C@H](C(=O)NCC2CNCC2(F)F)O1` (stereo partly drawn) [Example 29, (2R,6R)-N-[(4,4-difluoropyrrolidin-3-yl)methyl]-6-methyl-4-[8-(trifluoromethyl)-5-quinolyl]morpholine-2-carboxamide], it took 14 nM to reach half-maximal inhibition (IC50). The IC50 values of the last two compounds are within 1.5-fold of each other.

`C[C@H]1C[C@@H](N)CN(c2ccc(Cl)c3ncccc23)C1` [Example 23, (3R,5S)-1-(8-chloro-5-quinolyl)-5-methyl-piperidin-3-amine] displayed an IC50 of 4 nM.

As for `Cc1ccc(N2C[C@@H](C)O[C@@H](C(=O)N[C@@H]3CNC[C@@H]3F)C2)c2cccnc12` [Example 21, cis-(2R,6R)-N-14-fluoropyrrolidin-3-yl1-6-methyl-4-(8-methyl-5-quinolyl)morpholine-2carboxamide], the IC50 amounted to 9 nM.

Turning to `C[C@@H]1CN(c2ccc(C(F)(F)F)c3ncccc23)C[C@H](C(=O)NC2C3CCC2CNC3)O1` (stereo partly drawn) [Example 31, (2R,6R)-N-(3-azabicyclo[3.2.1]octan-8-yl)-6-methyl-4-[8-(trifluoromethyl)-5-quinolyl]morpholine-2-carboxamide], the IC50 is 9 nM.

`C[C@@H]1CN(c2ccc(C(F)(F)F)c3ncccc23)C[C@H](C(=O)NCC(C)(C)N)O1` [Example 6, (2R,6R)-N-(2-amino-2-methyl-propyl)-6-methyl-4-[8-(trifluoromethyl)-5-quinolyl]morpholine-2-carboxamide]: inhibition was half-maximal at 26 nM (IC50).
